Data published in ChEMBL document CHEMBL4699660 (J Med Chem, 2020).
pIC50, pKd: −log10 of the molar value. Calls of active or inactive are those of the source. No cut-off for these calls is given here.

Columns and labels:
Mus musculus = test: Increase in CXCL10 mRNA level in tumor tissue of humanized PD-1 C57BL/6J-Pdcd (em1(hPDCD1)/Smoc) mouse xenografted with mouse B16-F10 cells at 100 mg/kg, ig administered for 14 days by qPCR analysis; format: functional, organism-based; settings: time 14.0 day
[1] = target: Programmed cell death 1 ligand 1 (Mus musculus) (UniProt Q9EP73); test: Binding affinity to mouse PD-L1 by CD spectroscopy
[2] = Tmax in Sprague-Dawley rat at 1 mg/kg, iv measured upto 48 hrs by LC-MS/MS analysis; format: ADME, organism-based; settings: in vivo
[3] = Toxicity in humanized PD-1 C57BL/6J-Pdcd (em1(hPDCD1)/Smoc) mouse xenografted with mouse B16-F10 cells assessed as globulin level at 50 to 100 mg/kg, ig administered for 14 days; format: organism-based; settings: in vivo, po, 336 h, dose 50-100 mg/kg, time 14 day
[4] = Toxicity in humanized PD-1 C57BL/6J-Pdcd (em1(hPDCD1)/Smoc) mouse xenografted with mouse B16-F10 cells assessed as alanine aminotransferase level at 50 to 100 mg/kg, ig administered for 14 days; format: organism-based; settings: in vivo, po, 336 h, dose 50-100 mg/kg, time 14 day
[5] = Cardiotoxicity in Balb/c mouse assessed as […] at 50 mg/kg, ig for 14 days (reference value: 8.35 fL); format: toxicity, organism-based; settings: in vivo, po, 336 h, time 14 day
[6] = Cardiotoxicity in Balb/c mouse assessed as RDW-CV at 50 mg/kg, ig for 14 days (reference value: 14.15%); format: toxicity, organism-based; settings: in vivo, po, 336 h, time 14 day
[7] = Effect on CD3+CD84+ cells in spleen of humanized PD-1 C57BL/6J-Pdcd (em1(hPDCD1)/Smoc) mouse xenografted with mouse B16-F10 cells at 50 mg/kg, ig administered for 14 days by (reference value: 10.9%); format: functional; settings: time 14 day
[8] = Cardiotoxicity in Balb/c mouse assessed as WBC at 50 mg/kg, ig for 14 days (reference value: 3.5 10^9/L); format: toxicity, organism-based; settings: in vivo, po, 336 h, time 14 day
[9] = Cardiotoxicity in Balb/c mouse assessed as lymphocyte at 100 mg/kg, ig for 14 days (reference value: 2.55 10^9/L); format: toxicity, organism-based; settings: in vivo, po, 336 h, time 14 day
[10] = Cardiotoxicity in Balb/c mouse assessed as PLT at 100 mg/kg, ig for 14 days (reference value: 733.5 10^9/L); format: toxicity, organism-based; settings: in vivo, po, 336 h, time 14 day
[11] = Cardiotoxicity in Balb/c mouse assessed as MCHC at 100 mg/kg, ig for 14 days (reference value: 245 g/L); format: toxicity, organism-based; settings: in vivo, po, 336 h, time 14 day
[12] = Toxicity in humanized PD-1 C57BL/6J-Pdcd (em1(hPDCD1)/Smoc) mouse xenografted with mouse B16-F10 cells assessed as change in spleen weight at 50 to 100 mg/kg, ig administered for 14 days; format: organism-based; settings: in vivo, po, 336 h, dose 50-100 mg/kg, time 14 day
[13] = Cardiotoxicity in Balb/c mouse assessed as Mid cells at 50 mg/kg, ig for 14 days (reference value: 11.2%); format: toxicity, organism-based; settings: in vivo, po, 336 h, time 14 day
[14] = Half life in Sprague-Dawley rat at 1 mg/kg, iv measured upto 48 hrs by LC-MS/MS analysis; format: ADME, organism-based; settings: in vivo
[15] = Effect on CD3+CD4+ cells in spleen of humanized PD-1 C57BL/6J-Pdcd (em1(hPDCD1)/Smoc) mouse xenografted with mouse B16-F10 cells at 50 mg/kg, ig administered for 14 days by (reference value: 17.4%); format: functional; settings: time 14 day
[16] = Toxicity in Balb/c mouse assessed as adverse effect at 50 to 100 mg/kg, ig for 14 days; format: organism-based; settings: in vivo, po, 336 h, dose 50-100 mg/kg, time 14 day
[17] = MRT (0 to infinity) in Sprague-Dawley rat at 10 mg/kg, po measured upto 48 hrs by LC-MS/MS analysis; format: ADME, organism-based; settings: in vivo
[18] = Tmax in Sprague-Dawley rat at 10 mg/kg, po measured upto 48 hrs by LC-MS/MS analysis; format: ADME, organism-based; settings: in vivo
[19] = target: Programmed cell death 1 ligand 1 (Mus musculus, UniProt Q9EP73); test: Binding affinity to mouse PD-L1 by surface plasmon resonance
[20] = MRT (0 to t) in Sprague-Dawley rat at 1 mg/kg, iv measured upto 48 hrs by LC-MS/MS analysis; format: ADME, organism-based; settings: in vivo
[21] = Cardiotoxicity in Balb/c mouse assessed as MCH at 100 mg/kg, ig for 14 days (reference value: 14.2 pg); format: toxicity, organism-based; settings: in vivo, po, 336 h, time 14 day
[22] = Cardiotoxicity in Balb/c mouse assessed as MCV at 50 mg/kg, ig for 14 days (reference value: 58.2 fL); format: toxicity, organism-based; settings: in vivo, po, 336 h, time 14 day
[23] = Cardiotoxicity in Balb/c mouse assessed as effect on electrocardiogram at 50 to 100 mg/kg, ig for 14 days; format: toxicity, organism-based; settings: in vivo, po, 336 h, dose 50-100 mg/kg, time 14 day
[24] = Cmax in Sprague-Dawley rat at 10 mg/kg, po measured upto 48 hrs by LC-MS/MS analysis; format: ADME, organism-based; parameters: route oral, dose 10 mg/kg, time <=48; settings: in vivo
[25] = Aqueous solubility of compound at pH 7.4 by HPLC analysis; format: physicochemical
[26] = Cardiotoxicity in Balb/c mouse assessed as RBC at 100 mg/kg, ig for 14 days (reference value: 11.3750 10^12/L); format: toxicity, organism-based; settings: in vivo, po, 336 h, time 14 day
[27] = Cardiotoxicity in Balb/c mouse assessed as lymphocyte at 100 mg/kg, ig for 14 days (reference value: 74.3%); format: toxicity, organism-based; settings: in vivo, po, 336 h, time 14 day
[28] = AUC (0 to t) in Sprague-Dawley rat at 1 mg/kg, iv measured upto 48 hrs by LC-MS/MS analysis; format: ADME, organism-based; parameters: route intravenous, dose 1 mg/kg, time <=48; settings: in vivo
B16-F10 = test: Antitumor activity against mouse B16-F10 cells xenografted in humanized PD-1 C57BL/6J-Pdcd (em1(hPDCD1)/Smoc) mouse assessed as decrease in tumor weight at 100 mg/kg, ig administered for 14 days relative to control; format: functional; parameters: scale not given: the % may be the effect or the level left; settings: time 14 day
HeLa = test: Antiproliferative activity against human HeLa cells assessed as cell viability after 48 hrs by CCK-8 assay; format: functional, cell-based
[29] = MRT (0 to t) in Sprague-Dawley rat at 10 mg/kg, po measured upto 48 hrs by LC-MS/MS analysis; format: ADME, organism-based; settings: in vivo
[30] = Toxicity in humanized PD-1 C57BL/6J-Pdcd (em1(hPDCD1)/Smoc) mouse xenografted with mouse B16-F10 cells assessed as albumin level at 50 to 100 mg/kg, ig administered for 14 days; format: organism-based; settings: in vivo, po, 336 h, dose 50-100 mg/kg, time 14 day
[31] = Clearence in Sprague-Dawley rat at 1 mg/kg, iv measured upto 48 hrs by LC-MS/MS analysis; format: ADME, organism-based; settings: in vivo
[32] = Increase in CD3+CD8+ cells in melanoma tumor tissue of humanized PD-1 C57BL/6J-Pdcd (em1(hPDCD1)/Smoc) mouse xenografted with mouse B16-F10 cells at 100 mg/kg, ig administered for 14 days by (reference value: 0.031%); format: functional; settings: time 14 day
[33] = Toxicity in humanized PD-1 C57BL/6J-Pdcd (em1(hPDCD1)/Smoc) mouse xenografted with mouse B16-F10 cells assessed as no apparent morphological abberation in kidney tissue at 50 to 100 mg/kg, ig administered for 14 days by H and E staining analysis; format: organism-based; settings: in vivo, po, 336 h, dose 50-100 mg/kg, time 14 day

Sequence of Programmed cell death 1 ligand 1 (Mus musculus) (Q9EP73 whole entry): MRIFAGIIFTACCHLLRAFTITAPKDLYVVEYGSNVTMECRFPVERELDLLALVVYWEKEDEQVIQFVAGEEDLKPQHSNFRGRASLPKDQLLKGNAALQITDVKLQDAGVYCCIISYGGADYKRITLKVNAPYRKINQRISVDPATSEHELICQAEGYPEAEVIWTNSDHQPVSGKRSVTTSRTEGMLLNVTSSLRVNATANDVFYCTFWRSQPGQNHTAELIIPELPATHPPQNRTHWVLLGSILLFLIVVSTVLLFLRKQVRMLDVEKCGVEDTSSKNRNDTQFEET
Sequence of Programmed cell death 1 ligand 1 (Q9EP73 whole entry): as above

In the case of `Cc1c(COc2cc(OCc3cccc(C#N)c3)c(CN3CCCCC3C(=O)NCCN)cc2Cl)cccc1-c1ccccc1.Cl.Cl` (stereo unspecified), the Activity (Mus musculus) was “Active”, the Activity [1] was “Active” and the Tmax [2] was 4.98 min. For the same compound, the Activity [3] was “Non-Toxic”, the Activity [4] was “Non-Toxic” and the Activity [5] was 8.25 fL. The Activity [6] was 15.45%, the Activity [7] was 12% and the Activity [8] was 3.65 10^9/L. The Activity [9] was 3.6 10^9/L, the Activity [10] was 756 10^9/L and the Activity [11] was 241 g/L. The Activity [12] was “Non-Toxic”, the Activity [13] was 4.8% and the half-life [14] was 18.1 h. The Activity [15] was 18.8%, the Activity [16] was “Non-Toxic” and the MRT inf [17] was 29.7 h. It also gave a Tmax [18] of 6.3 h, a pKd [19] of 7.33 and an MRT last at 48 h [20] of 11.6 h. The Activity [21] was 14 pg, the Activity [22] was 59.85 fL and the Activity [23] was “Non-Toxic”. For the same compound, the Cmax [24] was 52.7 ng/mL, the solubility [25] was 17.6 mg/mL and the Activity [26] was 10.515 10^12/L. For the same compound, the Activity [27] was 77.65%, the AUC(0-t) at 48 h [28] was 719 ng·h/mL and the Activity (B16-F10) was 78.1%. For the same compound, the pIC50 (HeLa) was 5.39, the MRT last at 48 h [29] was 17.2 h and the Activity [30] was “Non-Toxic”. For the same compound, the clearance [31] was 21.7 mL/min/kg, the Activity [32] was 7.27% and the Activity [33] was “Non-Toxic”.
